Molecular target: T1, human GLP-1R receptor (Homo sapiens, UniProt P43220)
T1 construct: expressed in transfected cells
Assay: GLP-1R low expression cell assay (cAMP TR-FRET, CHO-K1_hGLP-1Rlow_clone10 cells)
Type: cell-based
Conditions: for EC50: cAMP TR-FRET, 30 min at 25° C.; for Emax: maximum activation relative to control GLP-1 peptide agonist
How it was run: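 Readout is cAMP TR-FRET after 30 min compound stimulation at 25 °C of a low-GLP-1R-expressing CHO-K1 clone (1,000 cells/well), with 10-point 3-fold serial dilutions. Percent activation versus a control GLP-1 peptide, from duplicates, was Hill-fitted to give EC50.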

T1 sequence (P43220 24-463): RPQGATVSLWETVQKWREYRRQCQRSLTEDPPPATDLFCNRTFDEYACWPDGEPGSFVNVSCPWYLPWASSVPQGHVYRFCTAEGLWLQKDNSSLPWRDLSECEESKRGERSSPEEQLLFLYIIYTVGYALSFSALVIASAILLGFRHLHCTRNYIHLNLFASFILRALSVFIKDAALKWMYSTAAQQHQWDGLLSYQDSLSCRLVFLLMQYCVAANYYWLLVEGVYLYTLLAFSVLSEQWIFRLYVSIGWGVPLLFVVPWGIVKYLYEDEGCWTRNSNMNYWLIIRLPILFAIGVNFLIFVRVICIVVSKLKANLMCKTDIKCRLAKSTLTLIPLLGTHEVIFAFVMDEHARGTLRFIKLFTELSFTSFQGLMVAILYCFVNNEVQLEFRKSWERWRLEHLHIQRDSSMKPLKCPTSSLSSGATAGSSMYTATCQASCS

Row | SMILES | EC50 [nM] | Emax [%]
1 | Cn1c(CN2CCC(c3cccc(OCc4ccc(Cl)cc4F)n3)CC2)nc2c3c(c(C(=O)O)cc21)OCCO3 [Compound 311, 2-((4-(6-((4-chloro-2-fluorobenzyl)oxy)pyridin-2-yl)piperidin-1-yl)methyl)-3-methyl-7,8-dihydro-3H-[1,4]dioxino[2′,3′:3,4]benzo[1,2-d]imidazole-5-carboxylic acid] | 10 to 100 | > 85
2 | Cn1c(CN2CCC(c3cccnc3NCc3ccc(Cl)cc3F)CC2)nc2c(OC(F)F)cc(C(=O)O)cc21 [Compound 239, 2-((4-(2-((4-Chloro-2-fluorobenzyl)amino)pyridin-3-yl)piperidin-1-yl)methyl)-4-(difluoromethoxy)-1-methyl-1H-benzo[d]imidazole-6-carboxylic acid] | > 1000 | 50 to 85
3 | COc1cc(F)ccc1COc1cccc(C2CCN(Cc3nc4c(OC(F)F)cc(C(=O)O)cc4n3C)CC2)n1 [Compound 231, 4-(Difluoromethoxy)-2-((4-(6-((4-fluoro-2-methoxybenzyl)oxy)pyridin-2-yl)piperidin-1-yl)methyl)-1-methyl-1H-benzo[d]imidazole-6-carboxylic acid] | 10 to 100 | > 85
4 | [2H]C([2H])(C)Oc1cc(C(=O)O)cc2c1nc(CN1CCC(c3cccc(OC([2H])([2H])c4ccc(Cl)cc4F)n3)CC1)n2C [Compound 286, 2-((4-(6-((4-Chloro-2-fluorophenyl)methoxy-d2)pyridin-2-yl)piperidin-1-yl)methyl)-4-(ethoxy-1,1-d2)-1-methyl-1H-benzo[d]imidazole-6-carboxylic acid] | < 10 | > 85
5 | COc1cc(C(=O)O)cc2c1nc(CN1CCC(c3cccc(OCc4ccc(C#N)c5c4OCC5)n3)CC1)n2C [Compound 283, 2-((4-(6-((4-Cyano-2,3-dihydrobenzofuran-7-yl)methoxy)pyridin-2-yl)piperidin-1-yl)methyl)-4-methoxy-1-methyl-1H-benzo[d]imidazole-6-carboxylic acid] | < 10 | > 85
6 | C[C@@H](Oc1ccccc1C1CCN(Cc2nc3c(OC(F)F)cc(C(=O)O)cc3n2C)CC1)c1ccc(C#N)cc1F (single isomer, unassigned) [Compound 173] | > 1000 | < 25
7 | Cn1c(CN2CCC(c3cccc(OCc4ccc(Cl)cc4F)n3)CC2)nc2c(OC(F)F)cc(C(=O)O)c(F)c21 [Compound 190, 2-((4-(6-((4-Chloro-2-fluorobenzyl)oxy)pyridin-2-yl)piperidin-1-yl)methyl)-4-(difluoromethoxy)-7-fluoro-1-methyl-1H-benzo[d]imidazole-6-carboxylic acid] | 10 to 100 | > 85
8 | CCC(F)Oc1cc(C(=O)O)cc2c1nc(CN1CCC(c3cccc(OCc4ccc(Cl)cc4F)n3)CC1)n2C (centres unmarked) [Compound 351, 2-((4-(6-((4-Chloro-2-fluorobenzyl)oxy)pyridin-2-yl)piperidin-1-yl)methyl)-4-(1-fluoropropoxy)-1-methyl-1H-benzo[d]imidazole-6-carboxylic acid] | 10 to 100 | > 85
9 | Cn1c(CN2CCC(c3cccc(OCc4ccc(Cl)cc4F)n3)CC2)nc2c(OC(F)F)cc(-c3nnc(C(F)(F)F)[nH]3)cc21 [Compound 232, 2-((4-(6-((4-Chloro-2-fluorobenzyl)oxy)pyridin-2-yl)piperidin-1-yl)methyl)-4-(difluoromethoxy)-1-methyl-6-(5-(trifluoromethyl)-4H-1,2,4-triazol-3-yl)-1H-benzo[d]imidazole] | > 1000 | 25 to 50
10 | Cn1c(CN2CCC(c3ccc(F)c(OCc4ccc(C(N)=O)cc4F)n3)CC2)nc2c(OC(F)F)cc(C(=O)O)cc21 [Compound 185, 2-((4-(6-((4-carbamoyl-2-fluorobenzyl)oxy)-5-fluoropyridin-2-yl)piperidin-1-yl)methyl)-4-(difluoromethoxy)-1-methyl-1H-benzo[d]imidazole-6-carboxylic acid] | 100 to 1000 | > 85
